Experimental data as given in patent publication US20090110671A1, “AGENT FOR ENHANCHING THE PRODUCTION OF COLLAGEN AND IT'S USE” (priority 2005, published 2009).

Legend:
[1] = system: NHDF cells (normal human dermal fibroblast cell); test: Experiment 1: collagen production in NHDF cells (Sircol kit), α,α-trehalose with AA-2G; type: cell-based; details: relative to AA-2G = 100
Procedure: Using “fibrocell NHDF”, a normal human dermal fibroblast cell, commercialized by Kurashiki Spinning Co., Ltd., Okayama, Japan (abbreviated as “NHDF cells”, hereinafter), experiment for studying the influence of α,α-trehalose on the collagen production by L-ascorbic acids was conducted based on the method described in Bioscience, Biotechnology, and Biochemistry, Vol. 68, No. 4, pp. 767-773, 2004. The method is outlined below: Test solutions were prepared by dissolving L-ascorbic acid 2-glucoside, a reagent grade specimen commercialized by Hayashibara Biochemical Laboratories Inc., Okayama, Japan (may be abbreviated as “AA-2G”, hereinafter), and α,α-trehalose, a reagent grade specimen commercialized by Hayashibara Biochemical Laboratories Inc., Okayama, Japan, in Dulbecco […] essential medium containing 10% (v/v) fetal calf serum and an antibiotic (abbreviated as “D-MEM”, hereinafter) to give a final concentration of 50 μM/ml of AA-2G and a final concentration of 7.5, 15 or 30 mg/ml of α,α-trehalose. NHDF cells, which had been successively cultured in D-MEM medium, were collected, re-suspended in a fresh preparation of D-MEM medium, inoculated to 96-well microplates at a cell concentration of 2.5×10^4 cells/200 μl/well, and cultured for 24 hours. Thereafter, the supernatants of the cultures were removed by sucking, and further cultured for five days after addition of any of the test solutions in a volume of 200 μl/well. As controls, the cells, which had been cultured for 24 hours, were further cultured for five days after addition of 200 μl/well of D-MEM medium, D-MEM medium supplemented with α,α-trehalose at a concentration of 30 mg/ml, or D-MEM medium supplemented with AA-2G at a concentration of 50 μM/ml. After completion of culturing, the supernatants of the cultures were removed by sucking, admixed with 50 μl/well of 1 M acetic acid solution containing 1 mg/ml of pepsin, and shaken for four hours to solubilize collagen adhered to the cell surfaces, followed by quantifying the content of collagen accumulated in the cells using “Sircol Collagen Quantification Kit”, commercialized by Biocolor Ltd. These control and test solutions were respectively experimented with three wells, followed by calculating a mean value for collagen-production levels in the wells. All the cultures of the NHDF cells were conducted in a 5% (v/v) CO2 incubator. The results are in Table 1 where the values are expressed with relative values in terms of the collagen-production level of NHDF cells, which had been cultured in D-MEM medium containing AA-2G, being regarded as 100.

[2] = system: skin wrinkles/finely-wrinkles and flabby skin; test: Experiment 5: self-evaluation of lotions on skin wrinkles/finely-wrinkles and flabby skin, four months; type: in vivo, human; details: 4 months; for Evaluation A (remarkably efficacious) / Evaluation B (efficacious) / Evaluation C (slightly efficacious) / Evaluation D (inefficacious): lotion
Procedure: The following experiment was conducted to examine the influence of α,α-trehalose or saccharide derivatives thereof and hyaluronic acid and/or chondroitin sulfate on the skin. Since there exists a relatively constant amount of L-ascorbic acid in vivo, the collagen production by L-ascorbic acid proceeds constantly. Based on the following basic formulation for lotion and the combination and composition in Table 5, 100 parts by weights of a lotion was prepared by adding to the basic formulation sodium hyaluronate, chondroitin sulfate, hydrous crystalline α,α-trehalose, a cosmetic grade specimen commercialized by Hayashibara Biochemical Laboratories Inc., Okayama, Japan, and “[…]”, a product name of a syrup having a solid content of about 75% and containing, on a dry solid basis, about 53% by weight of α-maltosyl α,α-trehalose and about 5% by weight of other saccharide derivatives of α,α-trehalose, and an adequate amount of refined water. In Table 5, the respective amounts of the added saccharide are expressed on a dry solid basis. The syrup containing saccharide derivatives of α,α-trehalose was added in an amount of the saccharide derivatives as shown in Table 5. Eleven women as volunteers, who had been suffering from skin wrinkles/finely-wrinkles or flabby skin, were allowed to wash their faces with any of the lotions having compositions in Table 5 three times a day for four months and then allowed to evaluate themselves about their face-skin conditions by comparing with those before use of the lotions.

[3] = added saccharide 0.05 part by weight, 3 times a day
[4] = added saccharide 0.1 part by weight, 3 times a day
[5] = added saccharide 1 part by weight, 3 times a day
[6] = added saccharide 2 + chondroitin sulfate 0.5 part by weight
[7] = added saccharide 2 + sodium hyaluronate 0.25 + chondroitin sulfate 0.25 part by weight
[8] = added saccharide 2 + sodium hyaluronate 0.5 part by weight
[9] = added saccharide 2 parts by weight, 3 times a day
[10] = added saccharide 10 parts by weight, 3 times a day
[11] = added saccharide 20 parts by weight, 3 times a day

OC[C@H]1O[C@H](O[C@H]2O[C@H](CO)[C@@H](O)[C@H](O)[C@H]2O)[C@H](O)[C@@H](O)[C@@H]1O [α,α-trehalose]
Collagen-production level ([1]; α,α-trehalose 7.5 mg/ml + 50 μM AA-2G): 150 | Collagen-production level ([1]; α,α-trehalose 15.0 mg/ml + 50 μM AA-2G): 217 | Collagen-production level ([1]; α,α-trehalose 30.0 mg/ml + 50 μM AA-2G): 264 | Collagen-production level ([1]; α,α-trehalose 30.0 mg/ml in D-MEM, no AA-2G): 41 | Evaluation A (remarkably efficacious) [2, 3]: 0 number of volunteers | Evaluation B (efficacious) [2, 3]: 0 number of volunteers | Evaluation C (slightly efficacious) [2, 3]: 3 number of volunteers | Evaluation D (inefficacious) [2, 3]: 8 number of volunteers | Evaluation A (remarkably efficacious) [2, 4]: 0 number of volunteers | Evaluation B (efficacious) [2, 4]: 2 number of volunteers | Evaluation C (slightly efficacious) [2, 4]: 5 number of volunteers | Evaluation D (inefficacious) [2, 4]: 4 number of volunteers | Evaluation A (remarkably efficacious) [2, 5]: 2 number of volunteers | Evaluation B (efficacious) [2, 5]: 2 number of volunteers | Evaluation C (slightly efficacious) [2, 5]: 6 number of volunteers | Evaluation D (inefficacious) [2, 5]: 1 number of volunteers | Evaluation A (remarkably efficacious) [2, 6]: 3 number of volunteers | Evaluation B (efficacious) [2, 6]: 5 number of volunteers | Evaluation C (slightly efficacious) [2, 6]: 3 number of volunteers | Evaluation D (inefficacious) [2, 6]: 0 number of volunteers | Evaluation A (remarkably efficacious) [2, 7]: 6 number of volunteers | Evaluation B (efficacious) [2, 7]: 3 number of volunteers | Evaluation C (slightly efficacious) [2, 7]: 2 number of volunteers | Evaluation D (inefficacious) [2, 7]: 0 number of volunteers | Evaluation A (remarkably efficacious) [2, 8]: 3 number of volunteers | Evaluation B (efficacious) [2, 8]: 4 number of volunteers | Evaluation C (slightly efficacious) [2, 8]: 3 number of volunteers | Evaluation D (inefficacious) [2, 8]: 1 number of volunteers | Evaluation A (remarkably efficacious) [2, 9]: 2 number of volunteers | Evaluation B (efficacious) [2, 9]: 4 number of volunteers | Evaluation C (slightly efficacious) [2, 9]: 4 number of volunteers | Evaluation D (inefficacious) [2, 9]: 1 number of volunteers | Evaluation A (remarkably efficacious) [2, 10]: 3 number of volunteers | Evaluation B (efficacious) [2, 10]: 3 number of volunteers | Evaluation C (slightly efficacious) [2, 10]: 5 number of volunteers | Evaluation D (inefficacious) [2, 10]: 0 number of volunteers | Evaluation A (remarkably efficacious) [2, 11]: 3 number of volunteers | Evaluation B (efficacious) [2, 11]: 3 number of volunteers | Evaluation C (slightly efficacious) [2, 11]: 5 number of volunteers | Evaluation D (inefficacious) [2, 11]: 0 number of volunteers | volunteers who evaluated the lotions efficacious or more ([2]; lotions with 2 to 20 parts by weight of saccharide): six
